In series [1] the test system is prostate of castrated male NMRI mice. Put plainly: Prostate weights of castrated mice after combined testosterone/gestagen treatment. Type of series: in vivo. As for the experimental part:
The inhibition of a prostate growth that was induced by androgens and that was treated with a combination according to the invention, was also examined in the animal experiment.
To this end, 5 male NMRI mice of Møllegaard Breeding Centre Deutschland GmbH, Schönwalde weighing 28-30 g were castrated. Two weeks after the castration, testosterone propionate (TP) by itself—0.1 mg/animal—was administered to the control animals.
Also, two weeks after castration, the test animals were orally treated daily for one week with testosterone propionate (TP) 0.1 mg/animal/day s.c. and simultaneously with the following gestagens and the following dosages:
cyproterone acetate (CPA) at dosages of 0.1; 0.3; 1; 3 mg/animal/day dienogest (DNG) at dosages of 0.3; 1; 3; 10 mg/animal/day, chloromadinone acetate (CMA) at dosages 0.3; 1; 3; 10 mg/animal/day.
At the end of the test, the prostate weights of the mice were determined, and the test groups were compared.

Series [2] deals with prostate. As to conditions: young men under exogenic testosterone administration; cited from earlier work.
The subject of another series is LNCaP prostate cells. Description: Inhibition of androgen-dependent cell proliferation in LNCaP prostate cells (growth assay, cell number after 7 days). Type of series: cell-based, human. Particulars: androgen alone, FIG. 1. From the text: In the example of the inhibition of the androgen-dependent cell proliferation in LNCaP prostate cells, the biological mechanism of action of the combination of 17β-hydroxy-17α-methyl-estra-4,9,11-trien-3-one (R 1881)+the 17α-cyano-methyl-17β-hydroxy-estra-4,9-dien-3-one (DIENOGEST=DNG) was examined.
To this end, the human prostate cancer cell LNCaP was cultivated under routine conditions in Dulbecco's modified Eagle medium (DMEM) with the addition of 10% FCS (fetal calf serum).
The cells were then cultured for 2 to 6 passages with DMEM and 10% DCC-FCS (steroid-depleted FCS), before it was used in a growth assay with 5% DCC-FCS.
For the test, the cells were saturated in 24-well plates (10,000 cells/well and ml).
After 24 hours, the steroids that were dissolved in ethanol were added to fresh test medium (final concentration of ethanol 0.1%), and the cells were incubated for 7 days at 37° (5% CO2). The cell number was determined after this time in a cell counting and analysis system (CASY, Scharfe System GmbH).

Series [3] concerns prostate. As to conditions: 8-month therapy, 23 men aged 40-65 years, 160 mg/day; cited from earlier work.

These results are taken from patent US20070078091A1, “Pharmaceutical combinations for compensating for a testosterone deficiency in men while simultaneously protecting the prostate” (priority 1998, published 2007).

For the compound `CCC(=O)O[C@H]1CC[C@H]2[C@@H]3CCC4=CC(=O)CC[C@]4(C)[C@H]3CC[C@]12C` [TP, testosterone propionate], the “Effect on prostate weight compared to the castrated and the intact control animals” value in series [1] (0.1 mg/animal/day) is listed as “causes a clear increase of the prostate weight”. Moreover, the “Prostate weight (mean value ± S.D.)” value in series [1] (TP 0.1 mg/animal alone (TP control), n = 5) came to 4.4 ± 0.7 mg.

Turning to `CCCCCCC(=O)O[C@H]1CC[C@H]2[C@@H]3CCC4=CC(=O)CC[C@]4(C)[C@H]3CC[C@]12C` [testosterone enanthate], in the series with prostate [2], the “Prostate size by transrectal ultrasound” value was “an enlargement of the prostate was found”.

With `C[C@]1(O)CC[C@H]2[C@@H]3CCC4=CC(=O)CCC4=C3C=C[C@@]21C` [R1881, 17β-hydroxy-17α-methyl-estra-4,9,11-trien-3-one], the “Cell growth of LNCaP cells” value in the series with LNCaP prostate cells is “induces a cell growth”.

Take `CCCCCCCCCCC(=O)O[C@H]1CC[C@H]2[C@@H]3CCC4=CC(=O)CC[C@]4(C)[C@H]3CC[C@]12C` [testosterone undecanoate]: the “Increase in size of the prostate” value in the series on prostate [3] is 12%.
